Assay results taken from patent publication US20250312433A1, “Process for Producing of Vaccine Formulations With Preservatives” (priority 2022, published 2025).

How the values were obtained:
[1] = 2-PE concentration / solubility in Succinate Buffered Saline by RP-HPLC; assay type: physicochemical; conditions: for Measured 2-PE concentration: RP-HPLC
Procedure: (§1) The objective of this study was to evaluate the dissolution time and solubility of 2-phenoxyethanol (2-PE). 2-PE dissolution and concentration were evaluated at the following concentrations in Succinate Buffered Saline (SBS) (5 mM succinate, 150 mM NaCl, pH 5.8); 11 g/L, 16.5 g/L, and 20 g/L.
(§2) Appropriate amount of 2-PE was weighed out in 400 ml beaker and appropriate amount of succinate buffered saline was added. Agitation speed was 300 rpm and solution temperature about 20° C. The time for complete dissolution based on visual observation was recorded. 2-PE concentration was measured by RP-HPLC.

[2] = Dissolution time of 2-PE in Succinate Buffered Saline (visual observation); assay type: physicochemical; conditions: 300 rpm, about 20° C.; for 2-PE bulk dissolution Time: all dissolved besides up to approximately 5 small particles
Procedure: as §1, §2

## OCCOc1ccccc1 [2-PE, 2-phenoxyethanol]
[1]; all concentrations (11, 16.5, 20 mg/mL) in SBS
  measured 2-PE concentration below the target concentration: approximately 5%
[1]; aqueous buffer, thermodynamic from solid, succinate-buffered saline (pH 5.8) at 20° C.
  solubility: ≥ 19.1 mg/mL
[1]; target 11.0 mg/mL in SBS
  Percent Difference (measured − target)/target × 100: −4.5%
  Measured 2-PE concentration: 10.5 mg/mL
[1]; target 16.5 mg/mL in SBS
  Percent Difference (measured − target)/target × 100: −5.5%
  Measured 2-PE concentration: 15.6 mg/mL
[1]; target 20.0 mg/mL in SBS
  Percent Difference (measured − target)/target × 100: −4.5%
  Measured 2-PE concentration: 19.1 mg/mL
[2]; 11 mg/mL 2-PE in SBS (5 mM succinate, 150 mM NaCl, pH 5.8)
  2-PE bulk dissolution Time: 7 min
[2]; 16.5 mg/mL 2-PE in SBS
  2-PE bulk dissolution Time: 9 min
[2]; 20 mg/mL 2-PE in SBS
  2-PE bulk dissolution Time: 15 min
[2]; 20 mg/mL 2-PE in SBS, all small particles dissolved
  2-PE complete dissolution time: 35 min
